Source: the supplement of paper PMC10627819

Legend:
S. aureus DSM 20231 [1] = assay: fitness (endpoint OD595 vs no drug) (fraction); higher = more growth
Summary of the method: (§1)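 Fitness was measured as bacterial growth in 384-well plates inoculated at OD595 0.01 (30 µl, or 55 µl for S. pneumoniae). Media were TSB, LB Lennox or CY, at 37 °C. OD595 was read every 30 min for 14 h and background-subtracted against the first reading. Fitness is OD595 at the transition into stationary phase divided by the robust mean of no-drug control wells, capped at 1.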

S. aureus Newman [2] = assay: as above
Summary of the method: as §1

B. subtilis 168 [3] = assay: as above
Summary of the method: as §1

S. pneumoniae D39V [4] = assay: as above
Summary of the method: as §1

S. aureus DSM 20231 [5] = assay: Bliss interaction score (quartile over a dose matrix) (fitness difference); higher = more antagonism (negative = synergy)
Summary of the method: (§2)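 Quartiles of the Bliss score were taken over technical, biological and donor/recipient replicates. That score is observed fitness minus the product of the single-drug fitness values, which were inferred from combination data. Fitness itself is OD595 at entry into stationary phase divided by the plate's robust no-drug mean, with a cap at 1.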

S. aureus Newman [6] = assay: as above
Summary of the method: as §2

B. subtilis 168 [7] = assay: as above
Summary of the method: as §2

S. pneumoniae D39V [8] = assay: as above
Summary of the method: as §2
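For Bliss interaction score (quartile over a dose matrix) in this document: first quartile when negative (synergy) and third quartile when positive (antagonism).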

CO/N=C(\C(=O)N[C@@H]1C(=O)N2C(C(=O)O)=C(COC(C)=O)CS[C@H]12)c1csc(N)n1 [Cefotaxime] + COc1c(N2C[C@@H]3CCCN[C@@H]3C2)c(F)cc2c(=O)c(C(=O)O)cn(C3CC3)c12 [Moxifloxacin]
Conditions	fitness
B. subtilis 168 [3], first compound 0.0625 µg/mL, partner 0.0312 µg/mL	0.0617
B. subtilis 168 [3], first compound 0.0625 µg/mL, partner 0.0625 µg/mL	0.0437
B. subtilis 168 [3], first compound 0.0625 µg/mL, partner 0.125 µg/mL	0.0547
B. subtilis 168 [3], first compound 0.125 µg/mL, partner 0.0312 µg/mL	0.062
B. subtilis 168 [3], first compound 0.125 µg/mL, partner 0.0625 µg/mL	0.044
B. subtilis 168 [3], first compound 0.125 µg/mL, partner 0.125 µg/mL	0.05
B. subtilis 168 [3], first compound 0.25 µg/mL, partner 0.0312 µg/mL	0.0545
B. subtilis 168 [3], first compound 0.25 µg/mL, partner 0.0625 µg/mL	0.0527
B. subtilis 168 [3], first compound 0.25 µg/mL, partner 0.125 µg/mL	0.0632
B. subtilis 168 [3], first compound 0.5 µg/mL, partner 2 µg/mL	0.0626
B. subtilis 168 [3], first compound 0.5 µg/mL, partner 4 µg/mL	0.0595
B. subtilis 168 [3], first compound 0.5 µg/mL, partner 8 µg/mL	0.043
B. subtilis 168 [3], first compound 1 µg/mL, partner 2 µg/mL	0.0496
B. subtilis 168 [3], first compound 1 µg/mL, partner 4 µg/mL	0.0443
B. subtilis 168 [3], first compound 1 µg/mL, partner 8 µg/mL	0.0259
B. subtilis 168 [3], first compound 2 µg/mL, partner 2 µg/mL	0.0811
B. subtilis 168 [3], first compound 2 µg/mL, partner 4 µg/mL	0.0907
B. subtilis 168 [3], first compound 2 µg/mL, partner 8 µg/mL	0.0539
S. aureus DSM 20231 [1], first compound 0.039 µg/mL, partner 0.0075 µg/mL	0.674
S. aureus DSM 20231 [1], first compound 0.039 µg/mL, partner 0.015 µg/mL	0.612
S. aureus DSM 20231 [1], first compound 0.039 µg/mL, partner 0.03 µg/mL	0.543
S. aureus DSM 20231 [1], first compound 0.078 µg/mL, partner 0.0075 µg/mL	0.668
S. aureus DSM 20231 [1], first compound 0.078 µg/mL, partner 0.015 µg/mL	0.634
S. aureus DSM 20231 [1], first compound 0.078 µg/mL, partner 0.03 µg/mL	0.554
S. aureus DSM 20231 [1], first compound 0.156 µg/mL, partner 0.0075 µg/mL	0.636
S. aureus DSM 20231 [1], first compound 0.156 µg/mL, partner 0.015 µg/mL	0.603
S. aureus DSM 20231 [1], first compound 0.156 µg/mL, partner 0.03 µg/mL	0.536
S. aureus DSM 20231 [1], first compound 0.312 µg/mL, partner 0.0075 µg/mL	0.574
S. aureus DSM 20231 [1], first compound 0.312 µg/mL, partner 0.015 µg/mL	0.549
S. aureus DSM 20231 [1], first compound 0.312 µg/mL, partner 0.03 µg/mL	0.491
S. aureus Newman [2], first compound 0.078 µg/mL, partner 0.0075 µg/mL	0.657
S. aureus Newman [2], first compound 0.078 µg/mL, partner 0.015 µg/mL	0.498
S. aureus Newman [2], first compound 0.078 µg/mL, partner 0.03 µg/mL	0.0551
S. aureus Newman [2], first compound 0.156 µg/mL, partner 0.0075 µg/mL	0.558
S. aureus Newman [2], first compound 0.156 µg/mL, partner 0.015 µg/mL	0.432
S. aureus Newman [2], first compound 0.156 µg/mL, partner 0.03 µg/mL	0.046
S. aureus Newman [2], first compound 0.312 µg/mL, partner 0.0075 µg/mL	0.354
S. aureus Newman [2], first compound 0.312 µg/mL, partner 0.015 µg/mL	0.165
S. aureus Newman [2], first compound 0.312 µg/mL, partner 0.03 µg/mL	0.0657
S. aureus Newman [2], first compound 0.625 µg/mL, partner 0.0075 µg/mL	0.0357
S. aureus Newman [2], first compound 0.625 µg/mL, partner 0.015 µg/mL	0.019
S. aureus Newman [2], first compound 0.625 µg/mL, partner 0.03 µg/mL	0.0143
S. aureus Newman [2], first compound 1.25 µg/mL, partner 0.0075 µg/mL	0.0365
S. aureus Newman [2], first compound 1.25 µg/mL, partner 0.015 µg/mL	0.0045
S. aureus Newman [2], first compound 1.25 µg/mL, partner 0.03 µg/mL	0.0158
S. aureus Newman [2], first compound 2.5 µg/mL, partner 0.0075 µg/mL	0.0488
S. aureus Newman [2], first compound 2.5 µg/mL, partner 0.015 µg/mL	0.0142
S. aureus Newman [2], first compound 2.5 µg/mL, partner 0.03 µg/mL	0.0162
S. pneumoniae D39V [4], first compound 0.0018 µg/mL, partner 0.005 µg/mL	0.979
S. pneumoniae D39V [4], first compound 0.0018 µg/mL, partner 0.01 µg/mL	0.976
S. pneumoniae D39V [4], first compound 0.0018 µg/mL, partner 0.02 µg/mL	0.987
S. pneumoniae D39V [4], first compound 0.0018 µg/mL, partner 0.0312 µg/mL	0.13
S. pneumoniae D39V [4], first compound 0.0018 µg/mL, partner 0.0625 µg/mL	0.0856
S. pneumoniae D39V [4], first compound 0.0018 µg/mL, partner 0.125 µg/mL	0.0466
S. pneumoniae D39V [4], first compound 0.0035 µg/mL, partner 0.005 µg/mL	0.973
S. pneumoniae D39V [4], first compound 0.0035 µg/mL, partner 0.01 µg/mL	0.976
S. pneumoniae D39V [4], first compound 0.0035 µg/mL, partner 0.02 µg/mL	0.964
S. pneumoniae D39V [4], first compound 0.0035 µg/mL, partner 0.0312 µg/mL	0.108
S. pneumoniae D39V [4], first compound 0.0035 µg/mL, partner 0.0625 µg/mL	0.0929
S. pneumoniae D39V [4], first compound 0.0035 µg/mL, partner 0.125 µg/mL	0.0516
S. pneumoniae D39V [4], first compound 0.007 µg/mL, partner 0.005 µg/mL	0.801
S. pneumoniae D39V [4], first compound 0.007 µg/mL, partner 0.01 µg/mL	0.827
S. pneumoniae D39V [4], first compound 0.007 µg/mL, partner 0.02 µg/mL	0.833
S. pneumoniae D39V [4], first compound 0.007 µg/mL, partner 0.0312 µg/mL	0.0633
S. pneumoniae D39V [4], first compound 0.007 µg/mL, partner 0.0625 µg/mL	0.0639
S. pneumoniae D39V [4], first compound 0.007 µg/mL, partner 0.125 µg/mL	0.046

one replicate
Conditions	fitness
B. subtilis 168 [3], first compound 0.00775 µg/mL, partner 0.0312 µg/mL	0.0585
B. subtilis 168 [3], first compound 0.00775 µg/mL, partner 0.0625 µg/mL	0.0377
B. subtilis 168 [3], first compound 0.00775 µg/mL, partner 0.125 µg/mL	0.0204
B. subtilis 168 [3], first compound 0.0155 µg/mL, partner 0.0312 µg/mL	0.0281
B. subtilis 168 [3], first compound 0.0155 µg/mL, partner 0.0625 µg/mL	0.0221
B. subtilis 168 [3], first compound 0.0155 µg/mL, partner 0.125 µg/mL	0.0115
B. subtilis 168 [3], first compound 0.031 µg/mL, partner 0.0312 µg/mL	0.041
B. subtilis 168 [3], first compound 0.031 µg/mL, partner 0.0625 µg/mL	0.028
B. subtilis 168 [3], first compound 0.031 µg/mL, partner 0.125 µg/mL	0.0186
S. aureus DSM 20231 [1], first compound 0.039 µg/mL, partner 0.06 µg/mL	0.611
S. aureus DSM 20231 [1], first compound 0.039 µg/mL, partner 0.12 µg/mL	0.449
S. aureus DSM 20231 [1], first compound 0.078 µg/mL, partner 0.06 µg/mL	0.588
S. aureus DSM 20231 [1], first compound 0.078 µg/mL, partner 0.12 µg/mL	0.478
S. aureus DSM 20231 [1], first compound 0.156 µg/mL, partner 0.06 µg/mL	0.568
S. aureus DSM 20231 [1], first compound 0.156 µg/mL, partner 0.12 µg/mL	0.445
S. aureus DSM 20231 [1], first compound 0.312 µg/mL, partner 0.06 µg/mL	0.518
S. aureus DSM 20231 [1], first compound 0.312 µg/mL, partner 0.12 µg/mL	0.408
S. aureus Newman [2], first compound 0.039 µg/mL, partner 0.0075 µg/mL	0.669
S. aureus Newman [2], first compound 0.039 µg/mL, partner 0.015 µg/mL	0.529
S. aureus Newman [2], first compound 0.039 µg/mL, partner 0.03 µg/mL	0.0684

Conditions	Bliss interaction score
B. subtilis 168 [7]	0.0581
S. aureus DSM 20231 [5]	-0.0497
S. aureus Newman [6]	0.0354
S. pneumoniae D39V [8]	-0.0434
